Test results reported in patent publication US20220235065A1 (Epizyme, Inc., priority 2016, published 2022).
Counter-ions that a name gives are not always drawn.

Key:
[1] = tested on: H3K9me2 in MDA-MB-231 cells; assay: MDA-MB-231 H3K9me2 in-cell western assay; format: cell-based; details: Homo sapiens, read-out: EHMT2 ICW (IC50 μM)
In short: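 MDA-MB-231 cells (3,000/well) exposed to compound for two consecutive 48 h periods at 37 °C, then fixed and stained for H3K9me2, with DRAQ5 as DNA stain and infrared read at 700/800 nm. Percent inhibition was set between DMSO and UNC0638 control wells. IC50 came from triplicate dose–response fits with a four-parameter model, top 100%, bottom 0%.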

[2] = biological target: T1, EHMT1 (Homo sapiens, UniProt Q9H9B1); assay: EHMT1 PEP (EHMT1 peptide enzyme assay); format: biochemical; details: peptide substrate enzyme assay
T1 sequence (Q9H9B1 1-1298): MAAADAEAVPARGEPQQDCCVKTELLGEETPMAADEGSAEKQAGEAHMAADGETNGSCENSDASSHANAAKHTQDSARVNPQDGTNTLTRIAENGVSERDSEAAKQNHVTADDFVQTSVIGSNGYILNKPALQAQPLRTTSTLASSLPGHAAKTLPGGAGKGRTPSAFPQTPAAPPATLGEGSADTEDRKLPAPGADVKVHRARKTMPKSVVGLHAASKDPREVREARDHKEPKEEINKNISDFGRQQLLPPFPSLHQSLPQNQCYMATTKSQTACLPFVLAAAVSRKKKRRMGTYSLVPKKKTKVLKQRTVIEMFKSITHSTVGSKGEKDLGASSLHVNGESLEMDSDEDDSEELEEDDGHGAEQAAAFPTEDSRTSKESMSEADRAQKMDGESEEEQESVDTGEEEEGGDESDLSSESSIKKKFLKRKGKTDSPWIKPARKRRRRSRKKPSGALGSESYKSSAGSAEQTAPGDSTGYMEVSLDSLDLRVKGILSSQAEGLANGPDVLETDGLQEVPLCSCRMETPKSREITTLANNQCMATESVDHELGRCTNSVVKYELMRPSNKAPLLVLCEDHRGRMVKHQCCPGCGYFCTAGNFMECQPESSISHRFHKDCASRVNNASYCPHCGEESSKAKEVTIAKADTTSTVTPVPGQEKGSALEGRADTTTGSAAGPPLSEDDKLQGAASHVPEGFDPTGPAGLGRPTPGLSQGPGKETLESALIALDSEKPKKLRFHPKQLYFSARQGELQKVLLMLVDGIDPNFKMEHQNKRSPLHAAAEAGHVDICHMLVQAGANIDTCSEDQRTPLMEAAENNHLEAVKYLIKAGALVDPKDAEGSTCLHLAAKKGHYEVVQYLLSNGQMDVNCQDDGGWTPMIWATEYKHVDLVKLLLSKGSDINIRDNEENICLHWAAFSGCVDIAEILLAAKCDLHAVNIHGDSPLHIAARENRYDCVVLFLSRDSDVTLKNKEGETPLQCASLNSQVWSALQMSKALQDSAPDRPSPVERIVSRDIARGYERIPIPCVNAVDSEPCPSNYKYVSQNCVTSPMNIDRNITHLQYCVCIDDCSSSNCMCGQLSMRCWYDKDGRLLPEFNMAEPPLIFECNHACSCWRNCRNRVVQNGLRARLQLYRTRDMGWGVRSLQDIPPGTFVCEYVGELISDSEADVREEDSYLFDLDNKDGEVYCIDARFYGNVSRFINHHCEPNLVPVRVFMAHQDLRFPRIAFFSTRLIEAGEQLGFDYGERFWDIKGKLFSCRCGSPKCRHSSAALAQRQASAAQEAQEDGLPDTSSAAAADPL

SMILES	IC50 [1]	IC50 [2]
CNc1cc(C)nc(Nc2ccc(OC)c(-n3nccc3CN)c2)n1 [Compound 24]	> 10 µM	1 to 10 µM
CNc1cc(C)nc(Nc2ccc(C)c(-c3[nH]c4cnccc4c3C#N)c2)n1 [Compound 271]	> 10 µM	1 to 10 µM
CNc1cc(C)nc(Nc2ccc(Cl)c(C(=O)Nc3ccncn3)c2)n1 [Compound 259]	> 10 µM	1 to 10 µM
CNc1cc(C)nc(Nc2ccc(OC)c(-c3cccc4[nH]ccc34)c2)n1 [Compound 33, 2-N-[3-(1H-indol-4-yl)-4-methoxyphenyl]-4-N,6-dimethylpyrimidine-2,4-diamine hydrochloride]	> 10 µM	> 10 µM
CNc1cc(C)nc(Nc2ccc(C)c(C(=O)Nc3cn(C)nn3)c2)n1 [Compound 299]	> 10 µM	1 to 10 µM
CNc1cc(C)nc(Nc2ccc(OC)c(-n3ncc4ccncc43)c2)n1 [Compound 36]	> 10 µM	1 to 10 µM
CNc1cc(C)nc(Nc2ccc(OC)c(-c3nc4cnccn4n3)c2)n1 [Compound 38]	> 10 µM	1 to 10 µM
CNC1=Nc2cc(-c3cc4[nH]ccc4c(C(N)=O)n3)c(OC)cc2C12CCC2 [Compound 308]	> 10 µM	0.1 to 1 µM
CNc1cc(C)nc(Nc2ccc(Cl)c(C(=O)Nc3ccnnc3)c2)n1 [Compound 245]	> 10 µM	> 10 µM
CNc1cc(C)nc(Nc2ccc(OC)c(-c3c(C)nc4n3CCNC4)c2)n1 [Compound 30]	> 10 µM	> 10 µM
CNc1cc(C)nc(Nc2ccc(OC)c(-n3ncc4c3CCCN4)c2)n1 [Compound 32]	> 10 µM	> 10 µM
CNc1cc(C)nc(Nc2ccc(C)c(-c3cc4ccccc4[nH]3)c2)n1 [Compound 274]	> 10 µM	1 to 10 µM
CCc1ccc(Nc2nc(C)cc(NC)n2)cc1C(=O)Nc1cccnc1 [Compound 244]	> 10 µM	> 10 µM
CNc1cc(C)nc(Nc2ccc(Cl)c(-c3cc4c(cn3)CC(=O)N4)c2)n1 [Compound 260]	> 10 µM	0.1 to 1 µM
CCNc1c[nH]c(=O)c(-c2cc(Nc3nc(C)cc(NC)n3)ccc2C)c1 [Compound 276]	1 to 10 µM	1 to 10 µM
CNc1cc(C)nc(Nc2ccc(Cl)c(C(=O)Nc3cnccn3)c2)n1 [Compound 251]	1 to 10 µM	0.1 to 1 µM
CNc1cc(C)nc(Nc2ccc(C)c(C(=O)Nc3cscn3)c2)n1 [Compound 280]	> 10 µM	1 to 10 µM
CNc1cc(C)nc(Nc2cnc(C)c(-c3cc4ccncc4[nH]3)c2)n1 [Compound 311]	> 10 µM	> 10 µM
CNc1cc(C)nc(Nc2ccc(OC)c(-c3cccc4[nH]ncc34)c2)n1 [Compound 37, 2-N-[3-(1H-indazol-4-yl)-4-methoxyphenyl]-4-N,6-dimethylpyrimidine-2,4-diamine; trifluoroacetic acid]	> 10 µM	> 10 µM
CNc1cc(C)nc(Nc2ccc(OC)c(-c3nccc(NC)n3)c2)n1 [Compound 306]	> 10 µM	1 to 10 µM
CNc1cc(C)nc(Nc2ccc(OC)c(-c3cc(C4CC4)on3)c2)n1 [Compound 13]	1 to 10 µM	0.1 to 1 µM
CNc1cc(C)nc(Nc2ccc(OC)c(-c3nnc4n3CCN(C)C4)c2)n1 [Compound 31]	> 10 µM	> 10 µM

Continued, values first:

IC50 [1]	IC50 [2]	SMILES
< 0.1 µM	< 0.1 µM	CNC1=Nc2cc(-n3cc(C4CCCN4)cn3)c(Cl)cc2C12CCC2 (centres unmarked) [Compound 326]
0.1 to 1 µM	< 0.1 µM	CNCc1cnn(-c2c(F)ccc(Nc3nc(C)cc(NC)n3)c2F)c1 [Compound 307]
0.1 to 1 µM	< 0.1 µM	CNc1cc(C)nc(Nc2ccc(OC)c(-c3[nH]c4cnccc4c3CNC(C)=O)c2)n1 [Compound 316]
0.1 to 1 µM	< 0.1 µM	CNc1cc(C)nc(Nc2ccc(OC)c(-c3cc4[nH]ccc4c(C#N)n3)c2)n1 [Compound 292]
1 to 10 µM	0.1 to 1 µM	CNc1nc2cc(-c3cnc4cc[nH]c4c3)c(OC)cc2n1C [Compound 295]
1 to 10 µM	< 0.1 µM	CNc1cc(C)nc(Nc2ccc(OC)c(-c3cc4[nH]ccc4c(CN)n3)c2)n1 [Compound 296]
1 to 10 µM	< 0.1 µM	CNC1=Nc2cc(-c3cnc4cc[nH]c4c3)c(OC)cc2C12CCC2 [Compound 294]
0.1 to 1 µM	< 0.1 µM	CNc1nc2cc(-c3cc4ccncc4[nH]3)c(C)cc2n1C [Compound 278]
< 0.1 µM	< 0.1 µM	CNCc1cnn(-c2cc(Nc3nc(C)cc(NC)n3)ccc2Br)c1 [Compound 319]
1 to 10 µM	0.1 to 1 µM	CNc1cc(C)nc(Nc2ccc(Cl)c(C(=O)Nc3nccs3)c2)n1 [Compound 246]
1 to 10 µM	0.1 to 1 µM	CNc1nc(Nc2ccc(OC)c(-n3cc4c(n3)CCNC4)c2)nc(C)c1F [Compound 27, 5-fluoro-2-N-(4-methoxy-3-[2H,4H,5H,6H,7H-pyrazolo[4,3-c]pyridin-2-yl]phenyl)-4-N,6-dimethylpyrimidine-2,4-diamine trifluoroacetic acid]
1 to 10 µM	1 to 10 µM	CNc1nc(Nc2ccc(OC)c(-n3ncc4c3CCNC4)c2)nc(C)c1F [Compound 28, 5-fluoro-2-N-(4-methoxy-3-[1H,4H,5H,6H,7H-pyrazolo[4,3-c]pyridin-1-yl]phenyl)-4-N,6-dimethylpyrimidine-2,4-diamine trifluoroacetic acid]
0.1 to 1 µM	< 0.1 µM	CNCc1cn(-c2cc(Nc3nc(C)cc(NC)n3)ccc2OC)nc1F [Compound 323]
1 to 10 µM	< 0.1 µM	CNc1cc(C)nc(Nc2ccc(C)c(-c3nc4ccncc4[nH]3)c2)n1 [Compound 279]
1 to 10 µM	< 0.1 µM	CNc1cc(C)nc(Nc2ccc(OC)c(-c3cc4[nH]ccc4c(CNC(C)=O)n3)c2)n1 [Compound 293]
1 to 10 µM	0.1 to 1 µM	CNc1cc(C)nc(Nc2ccc(F)c(-n3cc(CN4CCC4)cn3)c2F)n1 [Compound 315]
1 to 10 µM	0.1 to 1 µM	CNc1cc(C)nc(Nc2ccc(OC)c(-n3cc(C4CC4)cn3)c2)n1 [Compound 14, 2-N-[3-(4-cyclopropyl-1H-pyrazol-1-yl)-4-methoxyphenyl]-4-N,6-dimethylpyrimidine-2,4-diamine]
1 to 10 µM	0.1 to 1 µM	CNCc1cc(-c2cc(Nc3nc(C)cc(NC)n3)ccc2OC)on1 [Compound 324]
< 0.1 µM	< 0.1 µM	CNc1cc(C)nc(Nc2ccc(Cl)c(-n3cc(C4CCCN4)cn3)c2)n1 (centres unmarked) [Compound 330]
1 to 10 µM	0.1 to 1 µM	CNc1cc(C)nc(Nc2ccc(C)c(C(=O)Nc3cnccn3)c2)n1 [Compound 287]
< 0.1 µM	< 0.1 µM	CNc1cc(C)nc(Nc2ccc(OC)c(-n3cc(C4CCCN4)cn3)c2)n1 (centres unmarked) [Compound 321]
0.1 to 1 µM	< 0.1 µM	CNCc1cc(-c2cc(Nc3nc(C)cc(NC)n3)ccc2OC)no1 [Compound 331]
1 to 10 µM	1 to 10 µM	CNc1cc(C)nc(Nc2cnc(OC)c(-n3ncc4c3CCNC4)c2)n1 [Compound 19]
0.1 to 1 µM	< 0.1 µM	CCc1ccc(Nc2nc(C)cc(NC)n2)cc1-c1cc2ccncc2[nH]1 [Compound 269]
0.1 to 1 µM	< 0.1 µM	CNc1cc(C)nc(Nc2ccc(C)c(-c3cc4[nH]ccc4cn3)c2)n1 [Compound 256]
0.1 to 1 µM	< 0.1 µM	CNC1=Nc2cc(-c3cc4[nH]ccc4nc3C)c(OC)cc2C12CCC2 [Compound 300]
< 0.1 µM	< 0.1 µM	CNCc1cnn(-c2c(OC)ccc(Nc3nc(C)cc(NC)n3)c2F)c1 [Compound 317, N2-(2-fluoro-4-methoxy-3-(4-((methylamino)methyl)-1H-pyrazol-1-yl)phenyl)-N4,6-dimethylpyrimidine-2,4-diamine]
